Reference: EP2787958B1, “CHELIDONIUM MAJUS EXTRACTS AND THEIR USE IN THE TREATMENT OF SKIN DISORDERS AND PROMOTION OF SKIN REGENERATION” (priority 2011, dated 2013)
Like-named read-outs stand apart in the source and are kept apart here.

Experiments:
HDF cells [1] = experiment: Evaluation of cell morphology (Sirius Red stained cells, microscopy); format: cell-based, Human
Method: Their morphology, colour and shape have been evaluated by using the ImageJ software program.
The results of the effects on cell morphology, produced by the treatment with the test compounds for 24 hours at the concentrations specified, in HDF cells stained for collagen with PSR are shown in Figures 4a-d, 5a-d and 6a-f. These Figures allow evaluating cell morphology through light microscopy observation at magnifications of 100x, 200x and 400x for HDF cells cultured under standard growth conditions, in the presence of 100 µM H2O2 and in the presence of 34 ng/ml TGF-β1.

[2] = test system: collagen produced by HDF cells; experiment: Quantity of collagen produced by the cells (elution of Sirius Red)
interleukin 1β (IL-1β) = experiment: Inflammatory cytokines in cell supernatant (Mosaic ELISA microarray): IL-1β; format: cell-based, Human; conditions: for IL-1β ng/(ml* No. of cells from photo) ± SD: 24 hours
[3] = test system: Human dermal fibroblasts (HDF); experiment: Mitochondrial dehydrogenase activity (WST-1 formazan assay) in HDF cells; conditions: for mitochondrial dehydrogenase activity (effect in words): 1 µM; for Revitalizing agent: 24 hours; for activity at 1 µM / activity at 10 µM: Homo sapiens, Fibroblast, read-out: % mitochondrial dehydrogenase activity ± SD
Method: Human dermal fibroblasts were used for assay at the 3rd T75 passage.
Mitochondrial dehydrogenase activity was measured in HDF, HEK and HUVEC cells by means of the formazan assay, using the WST-1 kit from Roche Diagnostic in accordance with the supplier's instructions. Briefly: the reagent was added (10 µl per well), the incubation was carried out for a further 2 hours or 4 hours, and, at the end of this time, the absorbance was read for 1 s at a wavelength of 450 nm in a Perkin Elmer Victor 2 Wallac microplate reader.
The activity percentage (% mitochondrial dehydrogenase activity) is defined as: % mitochondrial dehydrogenase activity = ((absorbance of treated cells - absorbance of blank) / (absorbance of control - absorbance of blank)) x 100.
The tests were performed with observations after 18 hours, seeding 8,000 cells per well, and after 42 hours, seeding 2,000 cells per well. Furthermore, in order to better analyze the dose/response curves for dihydroberberine, canadine and stylopine, curves were collected at 11 concentrations by seeding 2,000 cells per well with 46 hours incubation.
Dose/response curves are plotted at 6 concentrations. The tests were performed with observations after 24 hours, seeding 8,000 cells per well.

HDF cells [4] = experiment: Evaluation of cell proliferation (counting of Sirius Red stained cells in photographs); conditions: for No. of cells from photo ± SD: 24 hours
HDF cells [5] = experiment: Summary of uses and toxic effects deduced from the cell assays (Table 1); format: cell-based, Human; conditions: for Anti-fibrotic (prevention of scar formation, also from acne) / Cytoprotective (antioxidant, anti-inflammatory and anti-ageing; useful also in the treatment of acne) / Cytotoxic / Irritant / Wound-healing: 24 hours
In short: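 HDF cells exposed to test substances at a given dosage for 24 h; uses and toxicity inferred from free-radical scavenging, mitochondrial dehydrogenase activity, IL-1β/IL-6 production (basal or induced by 100 µM H2O2), proliferation under standard growth conditions, and senescence-like morphology.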

interleukin 6 (IL-6) = experiment: Inflammatory cytokines in cell supernatant (Mosaic ELISA microarray): IL-6; format: cell-based, Human; conditions: for IL-6 ng/(ml* No. of cells from photo) ± SD: 24 hours
[6] = Anti-radical activity (decay of the DPPH radical); format: biochemical; conditions: for Anti-radical (skin protective): 24 hours
In short: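 Test substance in ethanol mixed 1:1 with 200 µM DPPH (stock concentrations), in quadruplicate. Absorbance read at 530 nm after 30 min, with vitamin C and ethanol-only controls. IC50 from variable-slope Hill regression of dose-activity curves.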

[7] = Dose 1 µm (coptisine: 1 pm [sic])

CN1Cc2c(ccc3c2OCO3)[C@@H]2[C@H]1c1cc3c(cc1C[C@@H]2O)OCO3 [chelidonine]
cell morphology (HDF cells [1]; 1 µM): No changes in cell morphology
cell morphology (HDF cells [1]; 10 µM): Very obvious changes in cell morphology
collagen production (effect in words) ([2]; 1 µM, 34 ng/ml TGF-β1): tendency to antagonize collagen stimulation induced by TGF-β1
collagen production (effect in words) ([2]; 1 µM, 100 µM H2O2): tendency to inhibit collagen production
collagen production (effect in words) ([2]; 1 µM, standard conditions): no evident ability to modulate collagen production
collagen production (effect in words) ([2]; 10 µM, 34 ng/ml TGF-β1): stimulates collagen production
collagen production (effect in words) ([2]; 10 µM, 100 µM H2O2): stimulates collagen production
collagen production (effect in words) ([2]; 10 µM, standard conditions): stimulates collagen production
IL-1β production (effect in words) (interleukin 1β (IL-1β); 1 µM, 34 ng/ml TGF-β1): antagonizes the production of IL-1β
IL-1β ng/(ml* No. of cells from photo) ± SD (interleukin 1β (IL-1β); 1 µM, 34 ng/ml TGF-β1): 127±26 ng/(ml* No. of cells from photo)
IL-1β production (effect in words) (interleukin 1β (IL-1β); 1 µM, 100 µM H2O2): antagonizes the production of IL-1β
IL-1β ng/(ml* No. of cells from photo) ± SD (interleukin 1β (IL-1β); 1 µM, 100 µM H2O2): 115±8 ng/(ml* No. of cells from photo)
IL-1β ng/(ml* No. of cells from photo) ± SD (interleukin 1β (IL-1β); 1 µM, Standard conditions): 666±30 ng/(ml* No. of cells from photo)
IL-1β production (effect in words) (interleukin 1β (IL-1β); 1 µM, standard conditions): inhibits the production of IL-1β
IL-1β production (effect in words) (interleukin 1β (IL-1β); 10 µM, 34 ng/ml TGF-β1): stimulates IL-1β production
IL-1β ng/(ml* No. of cells from photo) ± SD (interleukin 1β (IL-1β); 10 µM, 34 ng/ml TGF-β1): 363±27 ng/(ml* No. of cells from photo)
IL-1β production (effect in words) (interleukin 1β (IL-1β); 10 µM, 100 µM H2O2): stimulates IL-1β production
IL-1β ng/(ml* No. of cells from photo) ± SD (interleukin 1β (IL-1β); 10 µM, 100 µM H2O2): 366±35 ng/(ml* No. of cells from photo)
IL-1β ng/(ml* No. of cells from photo) ± SD (interleukin 1β (IL-1β); 10 µM, Standard conditions): 17500±700 ng/(ml* No. of cells from photo)
IL-1β production (effect in words) (interleukin 1β (IL-1β); 10 µM, standard conditions): stimulates IL-1β production
concentrations below which no significant effects on mitochondrial dehydrogenase activity are shown [3]: less than 0.1 µM
mitochondrial dehydrogenase activity (effect in words) ([3]; 18 h): absence of effects
mitochondrial dehydrogenase activity (effect in words) ([3]; increased exposure time): significant inhibition of mitochondrial dehydrogenase activity
Revitalizing agent [3, 7]: No
Revitalizing agent ([3]; Dose 10 µm): No
activity at 1 µM ([3]; 18 h): 105 ± 7.05%
activity at 10 µM ([3]; 18 h): 89.3 ± 6.9%
activity at 1 µM ([3]; 42 h): 64.7 ± 5.88%
activity at 10 µM ([3]; 42 h): 30.3 ± 2.97%
inhibitory power toward the mitochondrial dehydrogenase activity ([3]; skin fibroblast cells and/or keratinocytes): marked inhibitory power
cell proliferation (effect in words) (HDF cells [4]; 1 µM): no evident ability to modulate cell proliferation
No. of cells from photo ± SD (HDF cells [4]; 1 µM, 34 ng/ml TGF-β1): 184±25
No. of cells from photo ± SD (HDF cells [4]; 1 µM, 100 µM H2O2): 189±37
No. of cells from photo ± SD (HDF cells [4]; 1 µM, Standard conditions): 202±21
cell proliferation (effect in words) (HDF cells [4]; 10 µM): marked inhibition of proliferation
No. of cells from photo ± SD (HDF cells [4]; 10 µM, 100 µM H2O2): 101±4
No. of cells from photo ± SD (HDF cells [4]; 10 µM, Standard conditions): 109±16
Anti-fibrotic (prevention of scar formation, also from acne) (HDF cells [5]; [7]): Yes (↓collagen, ↓IL-6, ↓IL-1β)
Cytoprotective (antioxidant, anti-inflammatory and anti-ageing; useful also in the treatment of acne) (HDF cells [5]; [7]): Yes (↓IL-6, ↓IL-1β)
Cytotoxic (HDF cells [5]; [7]): No
Irritant (HDF cells [5]; [7]): No
Wound-healing (HDF cells [5]; [7]): Yes (↓IL-1β)
Anti-fibrotic (prevention of scar formation, also from acne) (HDF cells [5]; Dose 10 µm): No
Cytoprotective (antioxidant, anti-inflammatory and anti-ageing; useful also in the treatment of acne) (HDF cells [5]; Dose 10 µm): No
Cytotoxic (HDF cells [5]; Dose 10 µm): Yes (senescent morph., ↓dehydrogenase)
Irritant (HDF cells [5]; Dose 10 µm): Yes (↑IL-6, ↑IL-1β)
Wound-healing (HDF cells [5]; Dose 10 µm): No
concentrations at which no toxic (cytotoxic and irritant) effects are shown (HDF cells [5]; exposure for 24 hours): less than or equal to 1 µM
IL-6 production (effect in words) (interleukin 6 (IL-6); 1 µM, 34 ng/ml TGF-β1): antagonizes the production of IL-6
IL-6 ng/(ml* No. of cells from photo) ± SD (interleukin 6 (IL-6); 1 µM, 34 ng/ml TGF-β1): 620±72 ng/(ml* No. of cells from photo)
IL-6 production (effect in words) (interleukin 6 (IL-6); 1 µM, 100 µM H2O2): antagonizes the production of IL-6
IL-6 ng/(ml* No. of cells from photo) ± SD (interleukin 6 (IL-6); 1 µM, 100 µM H2O2): 697±87 ng/(ml* No. of cells from photo)
IL-6 ng/(ml* No. of cells from photo) ± SD (interleukin 6 (IL-6); 1 µM, Standard conditions): 2883±553 ng/(ml* No. of cells from photo)
IL-6 production (effect in words) (interleukin 6 (IL-6); 1 µM, standard conditions): inhibits the production of IL-6
IL-6 production (effect in words) (interleukin 6 (IL-6); 10 µM, 34 ng/ml TGF-β1): stimulates IL-6 production
IL-6 ng/(ml* No. of cells from photo) ± SD (interleukin 6 (IL-6); 10 µM, 34 ng/ml TGF-β1): 1231±76 ng/(ml* No. of cells from photo)
IL-6 production (effect in words) (interleukin 6 (IL-6); 10 µM, 100 µM H2O2): stimulates IL-6 production
IL-6 ng/(ml* No. of cells from photo) ± SD (interleukin 6 (IL-6); 10 µM, 100 µM H2O2): 1990±32 ng/(ml* No. of cells from photo)
IL-6 ng/(ml* No. of cells from photo) ± SD (interleukin 6 (IL-6); 10 µM, Standard conditions): 38100±8300 ng/(ml* No. of cells from photo)
IL-6 production (effect in words) (interleukin 6 (IL-6); 10 µM, standard conditions): stimulates IL-6 production
% DPPH activity ([6]; 1 mM, 30 minutes): 98%
Anti-radical (skin protective) [6, 7]: No
Anti-radical (skin protective) ([6]; Dose 10 µm): No

C[n+]1cc2c3c(ccc2c2ccc4cc5c(cc4c21)OCO5)OCO3 [sanguinarine]
cell morphology (HDF cells [1]; 1 µM): senescent morphology
cell morphology (HDF cells [1]; 10 µM): complete absence of cells
IL-1β ng/(ml* No. of cells from photo) ± SD (interleukin 1β (IL-1β); 1 µM, 34 ng/ml TGF-β1): 297±13 ng/(ml* No. of cells from photo)
IL-1β ng/(ml* No. of cells from photo) ± SD (interleukin 1β (IL-1β); 1 µM, 100 µM H2O2): 253±9 ng/(ml* No. of cells from photo)
IL-1β ng/(ml* No. of cells from photo) ± SD (interleukin 1β (IL-1β); 1 µM, Standard conditions): 75±1 ng/(ml* No. of cells from photo)
IL-1β ng/(ml* No. of cells from photo) ± SD (interleukin 1β (IL-1β); 10 µM, 34 ng/ml TGF-β1): 16400±5000 ng/(ml* No. of cells from photo)
IL-1β ng/(ml* No. of cells from photo) ± SD (interleukin 1β (IL-1β); 10 µM, 100 µM H2O2): 18400±2800 ng/(ml* No. of cells from photo)
IL-1β ng/(ml* No. of cells from photo) ± SD (interleukin 1β (IL-1β); 10 µM, Standard conditions): 4535±81 ng/(ml* No. of cells from photo)
concentrations above which marked inhibition of mitochondrial dehydrogenase activity is caused ([3]; 18 h and 42 h): higher than 1 µM
activity at 1 µM ([3]; 18 h): 83.3 ± 6.83%
activity at 10 µM ([3]; 18 h): -1.57 ± 1.65%
activity at 1 µM ([3]; 42 h): -2.8 ± 3.67%
activity at 10 µM ([3]; 42 h): -16.6 ± 2.55%
No. of cells from photo ± SD (HDF cells [4]; 1 µM, 34 ng/ml TGF-β1): 86±7
No. of cells from photo ± SD (HDF cells [4]; 1 µM, 100 µM H2O2): 110±18
No. of cells from photo ± SD (HDF cells [4]; 1 µM, Standard conditions): 30±9
No. of cells from photo ± SD (HDF cells [4]; 10 µM, 34 ng/ml TGF-β1): 1±0
No. of cells from photo ± SD (HDF cells [4]; 10 µM, 100 µM H2O2): 1±0
No. of cells from photo ± SD (HDF cells [4]; 10 µM, Standard conditions): 1±0
Cytotoxic (HDF cells [5]; [7]): Yes (senescent morph., ↓dehydrogenase)
Irritant (HDF cells [5]; [7]): Yes (↑IL-6, ↑IL-1β)
Cytotoxic (HDF cells [5]; Dose 10 µm): Yes (cell death, ↓dehydrogenase)
Irritant (HDF cells [5]; Dose 10 µm): Yes (↑IL-6, ↑IL-1β)
concentrations at which toxic (cytotoxic and irritant) effects are shown (HDF cells [5]; exposure for 24 hours): greater than or equal to 1 µM
IL-6 ng/(ml* No. of cells from photo) ± SD (interleukin 6 (IL-6); 1 µM, 34 ng/ml TGF-β1): 2167±279 ng/(ml* No. of cells from photo)
IL-6 ng/(ml* No. of cells from photo) ± SD (interleukin 6 (IL-6); 1 µM, 100 µM H2O2): 2374±264 ng/(ml* No. of cells from photo)
IL-6 ng/(ml* No. of cells from photo) ± SD (interleukin 6 (IL-6); 1 µM, Standard conditions): 470±32 ng/(ml* No. of cells from photo)
IL-6 ng/(ml* No. of cells from photo) ± SD (interleukin 6 (IL-6); 10 µM, 34 ng/ml TGF-β1): 56600±9000 ng/(ml* No. of cells from photo)
IL-6 ng/(ml* No. of cells from photo) ± SD (interleukin 6 (IL-6); 10 µM, 100 µM H2O2): 66300±5000 ng/(ml* No. of cells from photo)
IL-6 ng/(ml* No. of cells from photo) ± SD (interleukin 6 (IL-6); 10 µM, Standard conditions): 17786±27 ng/(ml* No. of cells from photo)
